Values quoted from earlier work as cited in US20250114361A1, “PYRAZOLOPYRIMIDINE COMPOUND AND PHARMACEUTICAL USE THEREOF” (Japan Tobacco Inc., priority 2022, published 2025).

How the values were obtained:
[1] = system: intra-articular urate-injected arthritis model; settings: in vivo; cited from earlier work
[2] = system: mouse strain expressing CAPS-related NLRP3 mutations; settings: in vivo; cited from earlier work
MOG35-55EAE model mice = settings: administration after the onset; cited from earlier work
[3] = system: maternal immune activation (MIA) model; settings: administration to the mother; cited from earlier work
[4] = system: middle cerebral artery occlusion (MCAO) mice; settings: MCAO model; cited from earlier work
[5] = system: intestinal perforation model; settings: in vivo; cited from earlier work
R6/2 mice = settings: mouse, in vivo; cited from earlier work
[6] = system: mice infected with SARS-CoV-2; settings: mouse, in vivo; cited from earlier work
[7] = system: α-synuclein PFF injected mice; settings: mouse, in vivo; cited from earlier work
[8] = system: STZ-induced diabetic mice; settings: mouse, in vivo; cited from earlier work
[9] = system: mouse model of deoxycorticosterone acetate-salt; settings: in vivo; cited from earlier work
[10] = system: intracerebral bleeding model rats; settings: cited from earlier work
[11] = system: pilocarpine-induced epilepsy model mice; settings: mouse, in vivo; cited from earlier work
TBI model mice = settings: mouse, in vivo; cited from earlier work
microglia = settings: cited from earlier work
APP/PS1 mice = settings: mouse, in vivo; cited from earlier work
[12] = system: mice with spinal cord injury; settings: mouse, in vivo; cited from earlier work
[13] = system: pathological models of depressive illness; settings: in vivo; cited from earlier work

CS(=O)(=O)CCC#N [OLT1177]
arthritis [1]: suppressed arthritis

O=C(O)c1ccc(/C=C2/SC(=S)N(Cc3cccc(C(F)(F)F)c3)C2=O)cc1 [CY-09]
systemic lethal inflammation and survival [2]: suppressed systemic lethal inflammation and improved the survival

COc1ccc(Cl)cc1C(=O)NCCc1ccc(S(=O)(=O)NO)cc1 [JC-171]
impairment of motor function (MOG35-55EAE model mice): inhibited the impairment of motor function

CC(C)(O)c1coc(S(=O)(=O)NC(=O)Nc2c3c(cc4c2CCC4)CCC3)c1 [MCC950]
ASD symptoms in offspring [3]: suppresses ASD symptoms in offspring | neuroprotective effects [4]: showed neuroprotective effects | NLRP3 inflammasome activation and memory impairment [5]: NLRP3 inflammasome activation is suppressed and the memory impairment is improved | NLRP3 inflammasome activation, neuronal death in the striatum, symptom progression (R6/2 mice): inhibits NLRP3 inflammasome activation in the striatum of R6/2 mice, suppresses neuronal death in the striatum, and suppresses symptom progression | NLRP3 inflammasome activation in the lung and dysregulated immune response [6]: inhibits NLRP3 inflammasome activation in the lung and suppresses the dysregulated immune response | NLRP3 activation and neuronal death of dopamine neurons in the substantia nigra [7]: inhibits NLRP3 activation in the substantia nigra and suppresses neuronal death of dopamine neurons in the substantia nigra | increased vascular permeability [8]: alleviated increased vascular permeability | hypertension [9]: suppress hypertension | neuroprotective effects [10]: showed neuroprotective effects | apoptosis of hippocampal neurons [11]: suppress apoptosis of hippocampal neurons | IL-1β production and neurological symptoms after brain injury (TBI model mice): inhibits IL-1β production in TBI model mice and suppresses the development of neurological symptoms after brain injury | NLRP3 activation in microglia and IL-1β production (microglia): inhibits SOD1G93A and TDP-43 protein-induced NLRP3 activation in microglia and decreases IL-1β production | NLRP3 activation in microglia and cognitive dysfunction (APP/PS1 mice): suppresses NLRP3 activation in microglia and improves cognitive dysfunction | NLRP3 activation and IL-1β expression in the spinal cord, recovery of motor function [12]: NLRP3 activation and IL-1β expression in the spinal cord are suppressed, and the recovery of motor function is promoted | depressive symptoms [13]: improves depressive symptoms
